Results reported in patent US12083125B2, “Drug-induced epigenetic remodeling to prevent fibrosis” (Thomas Jefferson University, priority 2016, dated 2024).
Entries after “also recorded” stand apart in the source; their conditions may differ. Like-named read-outs stand apart in the source and are kept apart here.

Assays:
[1] = system: cells from the ex vivo mock cataract surgery explants; assay: ex vivo mock cataract surgery explants: myofibroblast emergence, αSMA and Fn-EDA expression; assay type: cell-based, chick
Source text: For example, in a PCO model, using an ex vivo lens mock cataract surgery model in chick embryos that recapitulates features of PCO, we investigated the cell reprogramming events involved in regulating changes in epigenetic markings of chromatin, which result in alterations of chromatin structure and impact gene transcriptional programs to control the emergence of myofibroblasts.
We tested this epigenetic targeting strategy using a clinically relevant ex vivo chick mock cataract surgery model that recapitulates the major features of the lens fibrotic disease, PCO, as well as a human lens cells (SRA01/04). Human SRA01/04 lens cells are studied extensively for the acquisition of a mesenchymal phenotype resulting from an Epithelial Mesenchymal Transition (EMT) after exposure to TGFβ associated with the development of lens fibrosis.
(§1) FIG. 2A illustrates how the ex vivo mock cataract surgery explants are created. Ex vivo mock cataract surgery explants provide a powerful model in which to study wound healing as well as the development of fibrotic disease. Briefly, to create this model, the fiber cell mass is hydroeluted from the lens leaving behind lens epithelial cells that remain adherent to the lens capsule. The resultant ex vivo explant when placed in culture is star shaped, with the adherent cells located in the points of the star. In response to the injury induced by the surgery, mesenchymal cells involved in repair move to the wound edges.
As shown in FIG. 2B wound healing across the denuded basement membrane is typically completed by day 3. Lens epithelial cells led by a leader cell population, which expresses the surface receptor CD44+ [42], move collectively to repopulate the denuded area of the wounded lens capsule (where the differentiated lens fiber cells were removed). FIG. 2C depicts the wound area over a three-day period. In FIGS. 3A and B CD44+ leader cell population that has migrated to the outside wound edge of the explants (FIG. 3A, left panel, right arrow) directs the collective migration of lens epithelial cells onto the rigid tissue culture substrate, a region we refer to as the extracapsular zone (ECZ). […] Therefore, within one model system we can assess epigenetic targeting strategies for preventing fibrosis and determine how these approaches will affect normal wound healing. This ex vivo model was used to investigate the epigenetic mechanisms (detailed below) involved in regulating cell reprogramming to a myofibroblast phenotype associated with lens fibrotic disease.
Next, we tested if manipulating histone de-methylase activity could change chromatin structure to block pro-fibrotic transcription factors from binding to DNA and the acquisition to a myofibroblast phenotype associated with fibrosis. […] Thus, treatment with GSKJ4 prevents αSMA expression in the ex vivo mock cataract surgery model.
Cells from the ex vivo mock cataract surgery explants were treated with vehicle or GSKJ4 for 24 hr. ECZ regions were treated 1 day after injury and inhibitor was washed away after 24 hour of treatment. We chose to add the inhibitor on day 1, during the time of open chromatin, the perfect timing to prevent cell reprogramming to a fibrotic phenotype. […]
(§2) Cells from the ex vivo mock cataract surgery explant were treated for 24 hour as indicated above with vehicle or GSK-J4. […] In FIG. 13B we determined the effect of GSKJ4 short-term treatment on wound healing. […]

[2] = system: ex vivo mock cataract surgery explants; assay: wound healing (open wound area) in ex vivo mock cataract surgery explants; assay type: cell-based, chick
Source text: as §1
As shown in FIG. 2B wound healing across the denuded basement membrane is typically completed by day 3. […]
We also determined whether GSKJ4 treatment affected wound healing. […] Open wound area (μm^2) was measured on Day 0 (D0) through Day 3 (D3) in the presence of vehicle control (DMSO) or GSKJ4. Open wound area was measured for each ex vivo capsule D0-D3 and presented in the graph+/− SEM. […]
as §2

[3] = evaluation of GSKJ1, GSKJ2, GSKJ4, GSKJ5: cellular permeability / bioavailability; assay type: in vitro ADME
Source text: (§3) To further review compounds in this class, we evaluated […]4, and GSKJ5. Based on our data, and review of the molecule, the highly polar carboxylate group of GSKJ1 and GSKJ2 restricts cellular permeability. […] Accordingly, for purposes of treating disease and disorders here, the most preferred active pharmaceutical compound is GSK-J4.

FHL124 human lens cells = assay: TGFβ-stimulated human lens cells, western blot for FN-EDA and Collagen I; assay type: cell-based; settings: FHL124 cells stimulated with TGFβ, FIG. 11
Description: We also performed similar studies with human lens cell culture. FHL124 human lens cells, a non-transformed spontaneously generated human lens cell line from embryonic explants, were stimulated with Transforming Growth Factor β (TGFβ), a potent inducer of the fibrotic response, in the absence or presence of the UTX inhibitor GSKJ4. Western blotting was performed with antibodies to extracellular matrix molecules associated with fibrosis, including Fibronectin EDA (FN-EDA), a splice form of FN and Collagen I. FN EDA expression is tightly linked to myofibroblast differentiation and Collagen I is a defining feature of fibrosis/scarring. GAPDH was used as a loading control for WB analysis.

[4] = testing of GSK-J4 concentration range (efficacy and toxicity)
Description: For example, when administering GSK-J4 to a patient, an appropriate therapeutic range comprises: about 1 μM to 10 μM concentration for a liquid, topical vehicle. Suitable doses can be generated based upon the tissue to be treated and area to be treated. […] The LD50 is otherwise known to those of skill in the art based upon the molecule of interest. The GSK-J4 can be formulated with suitable excipients and into a suitable vehicle for delivery to a human patient.

[5] = evaluation of GSKJ1, GSKJ2, GSKJ4, GSKJ5: efficacy / in vitro studies; settings: for efficacy / activity: ethyl esters of GSKJ1 and GSKJ2; for potency in in vitro studies: over a control, data not shown
Source text: as §3

## CCOC(=O)CCNc1cc(N2CCc3ccccc3CC2)nc(-c2ccccn2)n1 [GSK-J4]
[1]; 24 hour treatment, FIGS. 14A and B
  myofibroblast emergence, short-term treatment: effective to block
[1]; cells from ex vivo mock cataract surgery explants, FIG. 10A, B
  αSMA expression: prevents
[1]; ex vivo mock cataract surgery model, FIG. 10A
  emergence of myofibroblasts: effectively suppressed
[1]; treated 24 hr from day 1 after injury, washed away, lysates day 3, western blot
  Fn-EDA expression, short-term treatment: significantly inhibited
[1]; treated 24 hr from day 1 after injury, washed away, lysates day 3, western blot (αSMA to GAPDH)
  αSMA expression, short-term treatment: significantly inhibited; also recorded: effectively blocked
[2]; Day 0 through Day 3 in presence of GSKJ4 vs DMSO, FIG. 12
  wound healing (open wound area): somewhat slowed but did not prevent
[2]; treated at time of injury, day 0, for 24 hour, followed day 0 through day 4
  wound healing (open wound area), short-term treatment: does not affect
[3]; ethyl ester masking the acid group
  bioavailability: increased
FHL124 human lens cells
  TGFβ induced expression of Collagen I: blocked
  TGFβ induced expression of FN EDA: blocked
[4]; 10 μM versus 1 μM
  efficacy by concentration: higher efficacy at 10 μM than the 1 μM
[4]; 100 μM
  toxicity: began to show signs of toxicity
[5]
  efficacy / activity: greater efficacy

## O=C(O)CCNc1cc(N2CCc3ccccc3CC2)nc(-c2ccccn2)n1 [GSKJ1]
[3]
  cellular permeability: restricts
[5]
  potency in in vitro studies: potent over a control

## O=C(O)CCNc1cc(N2CCc3ccccc3CC2)nc(-c2cccnc2)n1 [GSKJ2]
[3]; highly polar carboxylate group
  cellular permeability: restricts
[5]
  potency in in vitro studies: potent over a control

## CCOC(=O)CCNc1cc(N2CCc3ccccc3CC2)nc(-c2cccnc2)n1 [GSKJ5]
[5]
  efficacy / activity: inactive
